Assays:
[1] = patients treated at currently recommended doses; cited from earlier work
HCV = conditions: treatment of HCV with interferon; cited from earlier work
recombinant HCV-NS5b = target: T1, recombinant HCV-NS5b (Hepatitis C virus genotype 1b, UniProt Q9WMX2); test: HCV-NS5b Enzyme Assay; format: biochemical
T1 construct: (His)6 (C); made in house; host or cells: XL-1 cells (E. coli)
Excerpt: The coding sequence of NS5b protein is cloned by PCR from pFKI389luc/NS3-3′/ET as described by Lohmann, V., et al. (1999) Science 285, 110-113 using the following primers: […] (SEQ. ID. NO. 1) […] (SEQ. ID. NO. 2)
The cloned fragment is missing the C terminus 21 amino acid residues. The cloned fragment is inserted into an IPTG-inducible expression plasmid that provides an epitope tag (His)6 at the carboxy terminus of the protein.
The recombinant enzyme is expressed in XL-1 cells and after induction of expression, the protein is purified using affinity chromatography on a nickel-NTA column. Storage condition is 10 mM Tris-HCl pH 7.5, 50 mM NaCl, 0.1 mM EDTA, 1 mM DTT, 20% glycerol at −20° C.
The polymerase activity is assayed by measuring incorporation of radiolabeled UTP into a RNA product using a biotinylated, heteropolymeric template, which includes a portion of the HCV genome. Typically, the assay mixture (50 μL) contains 10 mM Tris-HCl (pH 7.5), 5 mM MgCl2, 0.2 mM EDTA, 10 mM KCl, 1 unit/μL RNAsin, 1 mM DTT, 10 μM each of NTP, including [^3H]-UTP, and 10 ng/μL heteropolymeric template. Test compounds are initially dissolved in 100% DMSO and further diluted in aqueous buffer containing 5% DMSO. Typically, compounds are tested at concentrations between 1 nM and 100 μM. […] Incorporation of radioactivity is determined by scintillation counting.

[2] = system: HCV replicon I389luc-ubi-neo/NS3-3′/ET in ET (Huh-lucubineo-ET) cell line; test: Replicon Assay; format: cell-based; conditions: Hepatitis C virus, read-out: Replicon Assay
Procedure: A cell line, ET (Huh-lucubineo-ET) is used for screening of compounds of the present invention for HCV RNA dependent RNA polymerase. The ET cell line is stably transfected with RNA transcripts harboring a I389luc-ubi-neo/NS3-3′/ET; replicon with firefly luciferase-ubiquitin-neomycin phosphotransferase fusion protein and EMCV-IRES driven NS3-5B polyprotein containing the cell culture adaptive mutations (E1202G; T1280I; K1846T) (Krieger at al, 2001 and unpublished). The ET cells are grown in DMEM, supplemented with 10% fetal calf serum, 2 mM Glutamine, Penicillin (100 IU/mL)/Streptomycin (100 μg/mL), 1× nonessential amino acids, and 250 μg/mL G418 (“Geneticin”). They are all available through Life Technologies (Bethesda, Md.). The cells are plated at 0.5-1.0×10^4 cells/well in the 96 well plates and incubated for 24 hrs before adding nucleoside analogs. […] Luciferase activity will be measured 48-72 hours later by adding a lysis buffer and the substrate (Catalog number Glo-lysis buffer E2661 and Bright-Glo leuciferase system E2620 Promega, Madison, Wis.). […] Under the same condition, cytotoxicity of the compounds will be determined using cell proliferation reagent, WST-1 (Roche, Germany). […] IC50 and TC50 values were calculated by fitting % inhibition at each concentration to the following equation: % inhibition=100%/[(IC50/[I])^b+1] where b is Hill's coefficient.

## NC(=O)c1ncn([C@@H]2O[C@H](CO)[C@@H](O)[C@H]2O)n1 [Ribavirin, 1-β-D-ribofuranosyl-1H-1,2,-4-triazole-3-carboxamide]
[1]
  patients with significant hemolysis: 10-20%

## interferon
HCV
  response rate (long term efficacy): about 25%

## C[C@@]1(O)[C@H](O)[C@@H](COP(=O)(O)OP(=O)(O)OP(=O)(O)O)O[C@H]1n1cc([N+](=O)[O-])c2c(N)ncnc21 [Compound 104, 7-(2′-C-methyl-5′-triphospho-β-D-ribofuranosyl)-4-amino-5-nitro-pyrrolo[2,3-d]pyrimidine]
Recombinant HCV-NS5b
  IC50: 2600 nM

## C[C@@]1(O)[C@H](O)[C@@H](CO)O[C@H]1n1cc(C(=O)O)c2c(N)ncnc21 [Comparative Example A, 7-(2′-methyl-β-D-ribofuranosyl)-4-amino-5-carboxy-pyrrolo[2,3-d]pyrimidine, reference compound]
[2]
  IC50: > 50000 nM

## C[C@@]1(O)[C@H](O)[C@@H](CO)O[C@H]1n1cc([N+](=O)[O-])c2c(N)ncnc21 [Compound 101, 7-(2′-C-methyl-β-D-ribofuranosyl)-4-amino-5-nitro-pyrrolo[2,3-d]pyrimidine]
[2]
  IC50: 60 nM
